Source: ChEMBL document CHEMBL1137565, “Discovery of novel 8-azoniabicyclo[3.2.1]octane carbamates as muscarinic acetylcholine receptor antagonists” (Bioorg Med Chem Lett, 2007)

Key:
[1] = target: Muscarinic acetylcholine receptor M3 (Homo sapiens, UniProt P20309); experiment: Antagonist activity at cloned muscarinic M3 receptor expressed in CHO cells by measuring calcium mobilization; type: functional, cell-based
[2] = target: Muscarinic acetylcholine receptor M1 and M3 (Homo sapiens) (UniProt P20309+P11229); experiment: Selectivity for cloned muscarinic M3 receptor over cloned muscarinic M1 receptor
Muscarinic acetylcholine receptor M1 and M3 (Homo sapiens), sequence (P20309 whole entry, looked up, one chain of several): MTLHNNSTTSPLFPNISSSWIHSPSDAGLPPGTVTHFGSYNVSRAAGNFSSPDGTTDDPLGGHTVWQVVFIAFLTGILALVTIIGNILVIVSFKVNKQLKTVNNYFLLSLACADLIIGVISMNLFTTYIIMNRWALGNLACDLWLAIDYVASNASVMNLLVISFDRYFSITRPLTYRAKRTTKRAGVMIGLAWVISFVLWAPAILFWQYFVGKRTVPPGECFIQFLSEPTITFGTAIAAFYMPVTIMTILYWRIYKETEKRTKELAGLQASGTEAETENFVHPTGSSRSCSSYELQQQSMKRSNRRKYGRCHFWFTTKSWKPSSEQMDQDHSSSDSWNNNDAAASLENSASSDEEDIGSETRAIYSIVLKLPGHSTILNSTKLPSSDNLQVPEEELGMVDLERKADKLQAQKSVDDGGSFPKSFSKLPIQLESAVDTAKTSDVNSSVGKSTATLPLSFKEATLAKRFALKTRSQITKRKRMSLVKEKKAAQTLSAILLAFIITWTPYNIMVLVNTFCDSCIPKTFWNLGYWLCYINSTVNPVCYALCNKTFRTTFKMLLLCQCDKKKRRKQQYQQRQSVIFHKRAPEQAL

[3] = target: T1, Muscarinic acetylcholine receptor M2 (Homo sapiens, UniProt P08172); experiment: Antagonist activity at cloned muscarinic M2 receptor expressed in CHO cells by measuring calcium mobilization; type: functional, cell-based
T1 sequence (P08172 whole entry): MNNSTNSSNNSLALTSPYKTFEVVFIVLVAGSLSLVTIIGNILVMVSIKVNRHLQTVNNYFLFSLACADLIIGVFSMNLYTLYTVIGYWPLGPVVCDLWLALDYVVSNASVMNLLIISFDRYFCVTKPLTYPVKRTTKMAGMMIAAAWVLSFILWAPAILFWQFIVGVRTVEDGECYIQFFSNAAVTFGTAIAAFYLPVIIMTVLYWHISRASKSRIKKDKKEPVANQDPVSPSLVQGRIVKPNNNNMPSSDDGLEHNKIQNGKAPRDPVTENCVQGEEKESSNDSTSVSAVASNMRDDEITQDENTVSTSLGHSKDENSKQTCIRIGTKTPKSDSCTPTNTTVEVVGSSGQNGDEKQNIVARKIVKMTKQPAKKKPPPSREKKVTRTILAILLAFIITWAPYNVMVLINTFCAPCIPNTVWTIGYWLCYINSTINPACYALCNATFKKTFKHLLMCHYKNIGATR

[4] = target: Muscarinic acetylcholine receptors; M2 & M3 (Homo sapiens) (UniProt P20309+P08172); experiment: Selectivity for cloned muscarinic M3 receptor over cloned muscarinic M2 receptor
[5] = target: T2, Muscarinic acetylcholine receptor M1 (Homo sapiens, UniProt P11229); experiment: Antagonist activity at cloned muscarinic M1 receptor expressed in CHO cells by measuring calcium mobilization; type: functional, cell-based
T2 sequence (P11229 whole entry): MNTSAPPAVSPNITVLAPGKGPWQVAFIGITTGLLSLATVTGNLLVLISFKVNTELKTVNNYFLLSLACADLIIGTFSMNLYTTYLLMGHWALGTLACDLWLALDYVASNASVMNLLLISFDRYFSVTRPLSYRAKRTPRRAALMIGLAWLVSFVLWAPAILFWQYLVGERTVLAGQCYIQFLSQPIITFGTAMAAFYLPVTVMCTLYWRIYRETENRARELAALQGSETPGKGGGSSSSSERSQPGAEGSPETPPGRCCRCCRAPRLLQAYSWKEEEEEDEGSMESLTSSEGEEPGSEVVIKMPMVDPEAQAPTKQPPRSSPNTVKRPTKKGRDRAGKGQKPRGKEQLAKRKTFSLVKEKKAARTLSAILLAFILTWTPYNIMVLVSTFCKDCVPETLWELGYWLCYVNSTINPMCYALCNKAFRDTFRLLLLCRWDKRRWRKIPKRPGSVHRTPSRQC

Mus musculus [6] = species on record: Mus musculus; experiment: Effect on metacholine-induced bronchoconstriction in mouse assessed as bronchoprotection at 5 ug after 15 mins; type: functional
Mus musculus [7] = species on record: Mus musculus; experiment: Effect on metacholine-induced bronchoconstriction in mouse assessed as bronchoprotection at 5 ug after 5 hrs; type: functional

Muscarinic acetylcholine receptor M3, sequence (P20309 whole entry): as the sequence (P20309 whole entry, looked up, one chain of several) above

| SMILES | IC50 [1] [nM] | Ratio IC50 [2] | IC50 [3] [nM] | Ratio IC50 [4] | IC50 [5] [nM] | Activity (Mus musculus [6]) [%] | Activity (Mus musculus [7]) [%] |
| --- | --- | --- | --- | --- | --- | --- | --- |
| CN1[C@@H]2CC[C@H]1C[C@H](OC(=O)N(Cc1ccsc1)c1ccsc1)C2 | 7.2 | 1.9 | 19.6 | 2.7 | 13.8 | – | – |
| COc1cccc(CN(C(=O)O[C@@H]2C[C@H]3CC[C@@H](C2)N3C)c2ccccc2)c1 | 2140 | 0.6 | 1170 | 0.5 | 1210 | – | – |
| CN1[C@@H]2CC[C@H]1C[C@@H](OC(=O)N(Cc1ccc(C#N)cc1)c1ccsc1)C2 | 137 | 0.6 | 363 | 2.6 | 75.8 | – | – |
| Cc1ccc(CN(C(=O)O[C@@H]2C[C@H]3CC[C@@H](C2)[N+]3(C)C)c2ccccc2)s1 | 21.2 | 0.8 | 60.8 | 2.9 | 15.8 | – | – |
| C[N+]1(C)[C@@H]2CC[C@H]1C[C@@H](OC(=O)N(Cc1ccc(C#N)cc1)c1ccccc1)C2 | 714 | 0.4 | 1490 | 2.1 | 258 | – | – |
| Cc1ccsc1CN(C(=O)O[C@H]1C[C@H]2CC[C@@H](C1)N2C)c1ccccc1 | 108 | 1.1 | 191 | 1.8 | 117 | – | – |
| CN1[C@@H]2CC[C@H]1C[C@@H](OC(=O)N(CC1CCCCC1)c1ccsc1)C2 | 109 | 1.1 | 271 | 2.5 | 126 | – | – |
| Cc1ccoc1CN(C(=O)O[C@H]1C[C@H]2CC[C@@H](C1)[N+]2(C)C)c1ccccc1 | 42.3 | 0.4 | 229 | 5.4 | 15.2 | – | – |
| CN1[C@@H]2CC[C@H]1C[C@H](OC(=O)N(Cc1ccccc1)c1ccsc1)C2 | 10.9 | 1.7 | 39.1 | 3.6 | 19.1 | – | – |
| COc1ccc(CN(C(=O)O[C@H]2C[C@H]3CC[C@@H](C2)[N+]3(C)C)c2ccccc2)cc1 | 154 | 0.6 | 688 | 4.4 | 86 | – | – |
| CN1[C@@H]2CC[C@H]1C[C@@H](OC(=O)N(Cc1cccc(Br)c1)c1ccccc1)C2 | 2310 | 0.9 | 2160 | 0.9 | 1960 | – | – |
| Cc1ccsc1CN(C(=O)O[C@H]1C[C@H]2CC[C@@H](C1)[N+]2(C)C)c1ccccc1 | 6.4 | 0.6 | 34.7 | 5.4 | 3.8 | – | – |
| CN1[C@@H]2CC[C@H]1C[C@@H](OC(=O)N(Cc1ccsc1)c1ccccc1)C2 | 27.5 | 2.7 | 90.7 | 3.3 | 73.8 | – | – |
| COc1cccc(CN(C(=O)O[C@@H]2C[C@H]3CC[C@@H](C2)[N+]3(C)C)c2ccccc2)c1 | 972 | 0.6 | 1000 | 1 | 612 | – | – |
| C[N+]1(C)[C@@H]2CC[C@H]1C[C@H](OC(=O)N(Cc1cccs1)c1ccccc1)C2.[Br-] | 2.3 | 1 | 12.5 | 5.4 | 2.4 | 85 | – |
| CN1[C@@H]2CC[C@H]1C[C@H](OC(=O)N(Cc1ccc(Br)cc1)c1ccccc1)C2 | 721 | 1.1 | 1420 | 2 | 813 | – | – |
| CN1[C@@H]2CC[C@H]1C[C@@H](OC(=O)N(Cc1ccccc1Br)c1ccccc1)C2 | 1140 | 1.2 | 1400 | 1.2 | 1390 | – | – |
| C[N+]1(C)[C@@H]2CC[C@H]1C[C@H](OC(=O)N(Cc1ccccc1Br)c1ccccc1)C2 | 407 | 1 | 666 | 1.6 | 420 | – | – |

| SMILES | IC50 [1] [nM] | Ratio IC50 [2] | IC50 [3] [nM] | Ratio IC50 [4] | IC50 [5] [nM] | Activity (Mus musculus [6]) [%] | Activity (Mus musculus [7]) [%] |
| --- | --- | --- | --- | --- | --- | --- | --- |
| C[N+]1(C)[C@@H]2CC[C@H]1C[C@H](OC(=O)N(Cc1ccc(Br)cc1)c1ccccc1)C2 | 56.6 | 0.6 | 400 | 7.1 | 33.4 | – | – |
| CN1[C@@H]2CC[C@H]1C[C@H](OC(=O)N(Cc1ccoc1)c1ccccc1)C2 | 57.3 | 1.5 | 82.5 | 1.4 | 84.5 | – | – |
| Cc1ccc(CN(C(=O)O[C@@H]2C[C@H]3CC[C@@H](C2)N3C)c2ccccc2)s1 | 262 | 2 | 410 | 0.4 | 518 | – | – |
| C[N+]1(C)[C@@H]2CC[C@H]1C[C@@H](OC(=O)N(Cc1ccsc1)c1ccccc1)C2.[Br-] | 2.8 | 0.9 | 30.2 | 10.8 | 2.6 | 85 | – |
| C[N+]1(C)[C@@H]2CC[C@H]1C[C@H](OC(=O)N(CC1CCCCC1)c1ccsc1)C2 | 11.3 | 0.5 | 55.9 | 5 | 5.8 | – | – |
| C[N+]1(C)[C@@H]2CC[C@H]1C[C@H](OC(=O)N(Cc1ccccc1)c1cccs1)C2.[Br-] | 3 | 0.2 | 13.8 | 5.7 | 2.7 | 85 | 80 |
| CN1[C@@H]2CC[C@H]1C[C@H](OC(=O)N(Cc1ccccc1)c1cccs1)C2 | 22.9 | 2 | 26.5 | 1.2 | 45.1 | – | – |
| C[N+]1(C)[C@@H]2CC[C@H]1C[C@H](OC(=O)N(Cc1cccc(Br)c1)c1ccccc1)C2 | 342 | 0.6 | 520 | 1.5 | 210 | – | – |
| C[N+]1(C)[C@@H]2CC[C@H]1C[C@@H](OC(=O)N(Cc1cccc(C#N)c1)c1ccsc1)C2 | 137 | 0.4 | 638 | 4.7 | 55.6 | – | – |
| C[N+]1(C)[C@@H]2CC[C@H]1C[C@H](OC(=O)N(Cc1ccoc1)c1ccccc1)C2 | 16 | 0.8 | 53.7 | 3.4 | 12.2 | – | – |
| C[N+]1(C)[C@@H]2CC[C@H]1C[C@H](OC(=O)N(Cc1ccccc1)c1ccccc1)C2.[Br-] | 4.6 | 1 | 48 | 10.4 | 4.5 | 85 | – |
| C[N+]1(C)[C@@H]2CC[C@H]1C[C@@H](OC(=O)N(Cc1ccsc1)c1ccsc1)C2.[Br-] | 1 | 1.6 | 7.2 | 7.2 | 1.6 | 85 | – |
| Cc1ccoc1CN(C(=O)O[C@@H]1C[C@H]2CC[C@@H](C1)N2C)c1ccccc1 | 428 | 0.8 | 468 | 1.1 | 349 | – | – |
| CN1[C@@H]2CC[C@H]1C[C@H](OC(=O)N(Cc1ccccc1)c1ccccc1)C2 | 74.5 | 2.2 | 254 | 3.4 | 161 | – | – |
| CN1[C@@H]2CC[C@H]1C[C@@H](OC(=O)N(Cc1ccc(C#N)cc1)c1ccccc1)C2 | 1160 | 0.7 | 1350 | 1.1 | 847 | – | – |
| CN1[C@@H]2CC[C@H]1C[C@H](OC(=O)N(Cc1cccs1)c1ccccc1)C2 | 20.3 | 2.4 | 38.2 | 1.9 | 48.3 | – | – |
| COc1ccc(CN(C(=O)O[C@H]2C[C@H]3CC[C@@H](C2)N3C)c2ccccc2)cc1 | 776 | 0.9 | 1360 | 1.8 | 734 | – | – |
